According to patent US20140186263A1, “MALEIMIDE-FUNC[…] NANOPARTICLES” (THE ROYAL INSTITUTION FOR THE ADVANCEMENT OF …, priority 2011, published 2014):

Test system: blood brain barrier (BBB); brain, cerebellum
Experiment: Biodistribution of [18F]-AuNP in rats by small animal micro-PET
Type: in vivo, SD (Sprague-Dawley) rats
Conditions: healthy rats, intravenous injection, micro-PET brain scan
Experimental: To evaluate the bio-distribution of the AuNPs, [^18F] SiFA-AuNP (12 MBq) were injected into healthy rats (n=3) and evaluated by micro-PET. Representative body and brain scan images of a micro-PET scan following intravenous injection of a solution of [^18F]-SiFA-AuNP are illustrated in FIG. 8. Radioactivity was found in the kidney, liver and spleen.
The time-activity curves obtained from the PET images depicting the radioactivity uptake in the cerebellum and the brain (n=3), using bone radioactivity as a region of reference, are illustrated in FIG. 9 These curves illustrate that AuNPs start to accumulate in the cerebellum and brain at 25-120 min. Ex vivo biodistribution studies were also carried out to confirm the bio-distribution data of [^18F]-SiFA-AuNP in different organs 2 h following injection as obtained by micro-PET. The biodistribution data is illustrated in FIG. 10 and is expressed as the percentage of injected dose for each gram of tissue (% ID/g). […]
Biodistribution of [^18F]-AuNP in Rats by small animal PET: SD (Sprague-Dawley) Rats for in vivo PET studies were housed in a 12 h light/dark cycle at 21° C. with access to food and water ad libitum. […] Respiration rate, heart rate and body temperature were monitored throughout the scan (Biopac sytems MP150, Goleta, Calif., USA). […] The PET images were analyzed using ASIPRO software (Concorde Microsystems). […]

## CC(C)(C)[Si](F)(c1ccc(S)cc1)C(C)(C)C [[^18F]-SiFA-SH, ^18F-labeled 4-(di-tert-butylfluorosilanyl)benzenethiol]
  crossing of the blood brain barrier (BBB): does not cross the BBB
